Read-outs that look alike come from different tables or passages of the source.
Key:
[1] = biological target: T1, P-glycoprotein (Pgp; Abcb1a, MDR3) (Mus musculus, UniProt P21447); experiment: intrinsic protein; format: binding
[2] = biological target: T1, P-glycoprotein (Pgp; Abcb1a, MDR3); experiment: intrinsic protein; format: binding; remark: listed apart in the source

T1 sequence (P21447 whole entry): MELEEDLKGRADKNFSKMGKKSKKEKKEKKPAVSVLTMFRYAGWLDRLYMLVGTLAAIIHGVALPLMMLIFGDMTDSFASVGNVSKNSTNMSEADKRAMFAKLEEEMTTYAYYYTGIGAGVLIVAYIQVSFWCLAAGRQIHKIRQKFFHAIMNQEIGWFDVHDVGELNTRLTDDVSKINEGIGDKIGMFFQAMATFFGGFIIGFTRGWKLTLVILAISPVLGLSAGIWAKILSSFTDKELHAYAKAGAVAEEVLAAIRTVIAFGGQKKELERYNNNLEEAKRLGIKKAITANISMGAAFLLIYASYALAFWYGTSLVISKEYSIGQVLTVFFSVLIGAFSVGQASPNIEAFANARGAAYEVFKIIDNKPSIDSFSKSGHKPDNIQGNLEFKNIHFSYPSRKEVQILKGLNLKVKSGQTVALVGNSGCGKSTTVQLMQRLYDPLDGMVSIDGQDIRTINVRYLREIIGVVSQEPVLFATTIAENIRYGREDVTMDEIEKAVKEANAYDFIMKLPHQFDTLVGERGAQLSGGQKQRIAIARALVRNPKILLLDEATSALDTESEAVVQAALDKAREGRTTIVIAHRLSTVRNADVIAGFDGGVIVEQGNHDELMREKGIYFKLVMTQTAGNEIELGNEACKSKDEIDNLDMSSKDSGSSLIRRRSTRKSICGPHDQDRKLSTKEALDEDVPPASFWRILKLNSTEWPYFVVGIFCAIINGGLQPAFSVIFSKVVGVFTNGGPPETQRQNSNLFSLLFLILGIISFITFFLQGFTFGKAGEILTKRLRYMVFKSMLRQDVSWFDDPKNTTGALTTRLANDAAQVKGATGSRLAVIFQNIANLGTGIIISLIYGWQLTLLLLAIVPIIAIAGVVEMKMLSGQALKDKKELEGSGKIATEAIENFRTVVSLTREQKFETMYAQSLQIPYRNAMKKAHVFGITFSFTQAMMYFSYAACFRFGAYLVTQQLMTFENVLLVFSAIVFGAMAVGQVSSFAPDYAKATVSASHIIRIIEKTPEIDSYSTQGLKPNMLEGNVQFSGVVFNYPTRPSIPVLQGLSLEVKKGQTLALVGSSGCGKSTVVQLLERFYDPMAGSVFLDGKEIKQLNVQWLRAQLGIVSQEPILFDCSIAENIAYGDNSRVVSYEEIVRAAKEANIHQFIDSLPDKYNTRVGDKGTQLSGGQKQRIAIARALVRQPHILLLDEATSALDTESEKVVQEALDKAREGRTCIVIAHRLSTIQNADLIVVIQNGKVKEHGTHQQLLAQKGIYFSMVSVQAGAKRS

Kd [1] [µM]	Kd [2] [µM]	SMILES
115 ± 10	–	CN1CCC[C@@H]1Cc1c[nH]c2ccc(CCS(=O)(=O)c3ccccc3)cc12 [ETT, eletriptan]
–	92.6 ± 25	CNS(=O)(=O)Cc1ccc2[nH]cc(CCN(C)C)c2c1 [STT, sumatriptan]

Reference: paper PMC6309430 (Journal of pharmaceutical sciences, 2017)
